Results from paper PMC9611887, “Chitosan as a Functional Carrier for the Local Delivery Anti-Inflammatory Systems Containing Scutellariae baicalensis radix Extract” (Pharmaceutics, 2022).

Biological target: T1, hyaluronidase
T1 construct: gene SPAM1
Assay: turbidimetric assay, CTAB precipitation of undigested hyaluronic acid, absorbance […] nm
Type: biochemical
Conditions: hyaluronic acid 0.3 mg/mL, acetate buffer pH 4.5, bovine albumin and NaCl present, 37 °C, 10 min preincubation, 45 min reaction

Ability to Inhibit the Enzyme Hyaluronidase IC50: 1210 ± 60 µg/mL
SMILES: O=C(O)[C@H]1O[C@@H](Oc2cc3oc(-c4ccccc4)cc(=O)c3c(O)c2O)[C@H](O)[C@@H](O)[C@@H]1O [Baicalin]
